“Also recorded” adds a separate entry of the source.
Columns and labels:
[1] = tested on: CT26 syngeneic tumors overexpressing human PD-L1 (Clone299); test: Human PD-1/human PD-L1 dual knock-in model; assay type: in vivo, human PD-1/human PD-L1 dual Knock-In mice
Procedure: The in vivo effect of combining Compound 1 plus (R)-1-((7-cyano-2-(3′-(2-(difluoromethyl)-7-((3-hydroxypyrrolidin-1-yl)methyl)pyrido[3,2-d]pyrimidin-4-ylamino)-2,2′-dimethylbiphenyl-3-yl)benzo[d]oxazol-5-yl)methyl)piperidine-4-carboxylic acid (i.e., Compound A) was assessed in 8 to 10 weeks old human PD-1/human PD-L1 dual Knock-In mice (GemPharmatech, Shanghai, China) using CT26 syngeneic tumors overexpressing human PD-L1 (Clone299, Synthego, California). Both Compound 1 and Compound A were suspended in 5% N,N-dimethylacetamide (DMAC)+50 mM Citrate buffer in 0.5% methyl cellulose for oral administration. […] On day 17, tumor dimensions were measured by Vernier calipers, and volume estimated by the formula Volume=[L (long dimension)×W^2 (short dimension)]/2. […] Tumors were measured 3 times per week for the duration of the study. […]
The in vivo effect of Compound 2 plus Anti-PD-L1 (atezolizumab) was assessed in 8 to 10 weeks old human PD-1/human PD-L1 dual Knock-In mice (GemPharmatech, Shanghai, China) using CT26 syngeneic tumors overexpressing human PD-L1 (Clone299, Synthego, California). […] On day 12, tumor dimensions were measured by Vernier calipers, and volume estimated by the formula Volume=[L (long dimension)×W^2 (short dimension)]/2. […] Tumors were measured 3 times per week for the duration of the study. […]

DGKζ = DGKζ (Homo sapiens (Human), UniProt Q13574); test: In vitro DGKζ inhibition assay (ADP-Glo); assay type: biochemical; settings: 0.4 nM DGKζ, 30 μM ATP, 20 μM DLG
Procedure: (§1) The DGKα and DGKζ biochemical reactions were performed using His-tagged human recombinant enzymes (Signal Chem, DGKα, #D21-10BH; DGKζ, #D30-10H)) and DLG (Dilauroyl-sn-glycerol) lipid substrate (Signal Chem, #D430-59). ADP-Glo assay was performed using ADP-Glo™ kinase Assay kit (Promega, #V9104). The reactions were carried out in assay buffer containing 40 mM Tris, pH 7.5, 0.1% CHAPS, 0.1% Prionex, 40 mM NaCl, 5 mM MgCl2, 1 mM CaCl2, and 1 mM DTT. DGKα reactions contained 0.1 nM DGKα, 50 μM ATP, and 20 μM DLG. And DGKζ reactions contained 0.4 nM DGKζ, 30 μM ATP, and 20 μM DLG.
(§2) For compound inhibition studies, 40 nL test compound in DMSO was added to wells of white polystyrene plates in 384-well (Greiner, #784075) or 1536-well format (Greiner, #782075). Compounds were added with top concentration of 2 mM with 11 point, 3-fold dilution series. Enzyme solution (contains 2×DGK enzyme concentration in 1× assay buffer) was added to the plate in 2 μL/well volume, followed by 2 μL/well of substrate solution (contains 2× concentration of ATP and DLG substrate in 1× assay buffer). Plates were then centrifuged for 1 min at 1200 RPM and sealed or lidded. For 4 μL reaction volume, test compounds were therefore diluted 100× to final top concentration of 20 μM. After 90 minute incubation, reactions were quenched by addition of 2 μL/well Promega ADP-Glo Reagent, followed by centrifugation and lidding. After 60 min incubation, 2 μL/well Promega Kinase Detection Reagent was added, plates centrifuged, and incubated for 30 min. Plates were then read using Luminescence method on BMG PHERAstar FSX plate reader. Percent inhibition was calculated and IC50s were determined using 4-parameter fit in Genedata Screener. Labcyte Echo acoustic dispenser was used for compound addition, and Formulatrix Tempest liquid handler was used for all reagent dispenses.

DGKα = DGKα (Homo sapiens (Human), UniProt P23743); test: In vitro DGKα inhibition assay (ADP-Glo); assay type: biochemical; settings: 0.1 nM DGKα, 50 μM ATP, 20 μM DLG
Procedure: as §1, §2

Sequence of DGKα (P23743 whole entry): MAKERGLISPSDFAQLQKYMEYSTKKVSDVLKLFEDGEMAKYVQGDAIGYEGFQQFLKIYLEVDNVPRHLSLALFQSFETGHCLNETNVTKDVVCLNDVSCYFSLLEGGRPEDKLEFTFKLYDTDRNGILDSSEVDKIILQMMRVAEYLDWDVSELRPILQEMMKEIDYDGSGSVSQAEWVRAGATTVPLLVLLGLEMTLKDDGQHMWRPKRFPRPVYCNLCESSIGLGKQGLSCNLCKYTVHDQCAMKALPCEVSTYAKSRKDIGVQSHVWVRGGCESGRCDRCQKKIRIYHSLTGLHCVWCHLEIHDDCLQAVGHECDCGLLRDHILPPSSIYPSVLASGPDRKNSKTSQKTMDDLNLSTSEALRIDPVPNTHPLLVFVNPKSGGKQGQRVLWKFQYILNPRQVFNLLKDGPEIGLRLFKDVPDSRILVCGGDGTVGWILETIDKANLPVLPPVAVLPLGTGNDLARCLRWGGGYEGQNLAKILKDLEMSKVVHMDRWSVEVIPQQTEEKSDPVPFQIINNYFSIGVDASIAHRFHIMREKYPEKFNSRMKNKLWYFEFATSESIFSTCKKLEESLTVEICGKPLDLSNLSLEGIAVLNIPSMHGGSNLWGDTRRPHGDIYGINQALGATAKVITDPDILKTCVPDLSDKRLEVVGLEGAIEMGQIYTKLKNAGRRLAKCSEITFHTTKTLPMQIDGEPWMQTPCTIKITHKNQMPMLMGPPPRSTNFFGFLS
Sequence of DGKζ (Q13574 whole entry): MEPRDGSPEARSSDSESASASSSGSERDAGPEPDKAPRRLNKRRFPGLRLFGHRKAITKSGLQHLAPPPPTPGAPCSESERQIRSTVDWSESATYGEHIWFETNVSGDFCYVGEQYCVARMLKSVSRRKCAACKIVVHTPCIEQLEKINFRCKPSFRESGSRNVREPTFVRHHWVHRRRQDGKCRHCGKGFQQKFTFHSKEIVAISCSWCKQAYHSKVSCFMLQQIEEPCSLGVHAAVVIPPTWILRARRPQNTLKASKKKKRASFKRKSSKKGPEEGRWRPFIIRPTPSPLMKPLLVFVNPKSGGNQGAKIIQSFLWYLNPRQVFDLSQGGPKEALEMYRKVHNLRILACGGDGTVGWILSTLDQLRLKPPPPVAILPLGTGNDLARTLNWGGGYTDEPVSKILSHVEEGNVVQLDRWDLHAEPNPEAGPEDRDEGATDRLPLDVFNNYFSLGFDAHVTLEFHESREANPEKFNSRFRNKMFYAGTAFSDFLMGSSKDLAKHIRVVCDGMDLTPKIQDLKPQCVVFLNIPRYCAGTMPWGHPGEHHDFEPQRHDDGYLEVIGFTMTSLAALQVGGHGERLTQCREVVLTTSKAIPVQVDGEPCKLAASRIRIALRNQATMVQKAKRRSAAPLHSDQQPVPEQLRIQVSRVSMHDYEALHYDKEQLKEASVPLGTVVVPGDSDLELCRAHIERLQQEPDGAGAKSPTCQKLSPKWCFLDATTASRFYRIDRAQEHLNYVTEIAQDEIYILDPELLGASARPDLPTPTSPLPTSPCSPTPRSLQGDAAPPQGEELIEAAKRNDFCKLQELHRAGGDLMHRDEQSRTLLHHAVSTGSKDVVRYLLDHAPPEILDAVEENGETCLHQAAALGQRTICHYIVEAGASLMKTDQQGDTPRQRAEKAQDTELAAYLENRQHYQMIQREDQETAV

Compound	TGI, combined with Anti-PD-L1 mAb, vs Anti-PD-L1 mAb control group ([1]; 1.5 mg/kg Compound 2 Q2D and Anti-PD-L1 (atezolizumab), FIG. 8)	IC50 (DGKζ)	IC50 (DGKα)	combination effect on tumor growth delay (Bliss Independence analysis) ([1]; 10 mg/kg Compound 1 QD with 25 mg/kg Compound A BID for 15 days, vs respective controls, FIG. 4)
Cc1nc2c(N3C[C@@H](C)N(C(c4ccc(C(F)(F)F)cc4)C4CC(F)(F)C4)C[C@@H]3C)nc3nncn3c2n1C[C@@H]1CCCO1 (single isomer, unassigned) [Example 2]	statistically significant; also recorded: significant TGI	≤ 20 nM	≤ 20 nM	
C[C@@H]1CN(c2nc3nncn3c3c2nnn3C[C@H]2CCCO2)[C@@H](C)CN1C(c1ccc(F)cc1)c1ccc(F)cc1 [Example 1, 4-((2S,5R)-4-(Bis(4-fluorophenyl)methyl)-2,5-dimethylpiperazin-1-yl)-1-(((R)-tetrahydrofuran-2-yl)methyl)-1H-[1,2,3]triazolo[4,5-e][1,2,4]triazolo[4,3-a]pyrimidine]		≤ 20 nM	≤ 20 nM	synergistic effect in tumor growth delay

Source: patent publication US20250186450A1, “COMBINATION THERAPY COMPRISING DGK INHIBITORS and PD-1/PD-L1 INHIBITORS” (Incyte Corporation, priority 2023, published 2025)
